Assay: xn = mol fraction of the nth substance listed

NCC(=O)NCC(=O)O + CCCCCCCCCCCC[N+](C)(C)C.[Br-] + O
100 kPa
Conditions	electrical conductivity [S/m]
293.15 K, x1 = 0.0001801, x2 = 0.0003553	0.093
293.15 K, x1 = 0.0001801, x2 = 0.0003787	0.095
293.15 K, x1 = 0.0001801, x2 = 0.0004256	0.099
293.15 K, x1 = 0.0001802, x2 = 2.706e-05	0.0098
298.15 K, x1 = 9.009e-05, x2 = 2.704e-05	0.0082
298.15 K, x1 = 0.0001801, x2 = 0.0003553	0.096
298.15 K, x1 = 0.0001801, x2 = 0.0003787	0.097
298.15 K, x1 = 0.0001801, x2 = 0.0004021	0.099
303.15 K, x1 = 1.802e-05, x2 = 2.703e-05	0.0078
303.15 K, x1 = 9.009e-05, x2 = 2.704e-05	0.0097
308.15 K, x1 = 1.802e-05, x2 = 2.703e-05	0.0082
308.15 K, x1 = 9.005e-05, x2 = 0.0004487	0.098
313.15 K, x1 = 1.801e-05, x2 = 0.0005368	0.093
313.15 K, x1 = 1.802e-05, x2 = 2.703e-05	0.0087
313.15 K, x1 = 9.006e-05, x2 = 0.0004019	0.098
313.15 K, x1 = 0.0001801, x2 = 0.0003318	0.099

O=C([O-])[O-].[Na+].[Na+] + CCCCCCCCCCCC[N+](C)(C)C.[Br-] + O
298.15 K, 101 kPa
Conditions	electrical conductivity [S/m]
x1 = 0.0001801, x2 = 7.809e-05	0.2221
x1 = 0.0001801, x2 = 8.963e-05	0.2267
x1 = 0.0001801, x2 = 0.000101	0.2313
x1 = 0.0001801, x2 = 0.0001125	0.2359
x1 = 0.0001801, x2 = 0.0001241	0.2404
x1 = 0.0001801, x2 = 0.0001356	0.2449
x1 = 0.0001801, x2 = 0.0001466	0.2493
x1 = 0.0001801, x2 = 0.000158	0.2537
x1 = 0.0001801, x2 = 0.000169	0.2579
x1 = 0.0001801, x2 = 0.00018	0.2622
x1 = 0.0001801, x2 = 0.0001908	0.2663
x1 = 0.0001801, x2 = 0.0002018	0.2705
x1 = 0.0001801, x2 = 0.0002126	0.2745
x1 = 0.0001801, x2 = 0.0002234	0.278
x1 = 0.0001801, x2 = 0.000234	0.2806
x1 = 0.0001801, x2 = 0.0002447	0.2825
x1 = 0.0001801, x2 = 0.0002551	0.2841
x1 = 0.0001801, x2 = 0.0002658	0.2855
x1 = 0.0001801, x2 = 0.0002762	0.2868
x1 = 0.0001801, x2 = 0.0002867	0.288
x1 = 0.0001801, x2 = 0.0002986	0.2893
x1 = 0.0001801, x2 = 0.0003116	0.2908
x1 = 0.0001801, x2 = 0.000342	0.2939
x1 = 0.0001802, x2 = 0	0.1927
x1 = 0.0001802, x2 = 2.16e-06	0.1931
x1 = 0.0001802, x2 = 4.51e-06	0.1938
x1 = 0.0001802, x2 = 7.94e-06	0.1951
x1 = 0.0001802, x2 = 1.154e-05	0.1963
x1 = 0.0001802, x2 = 1.659e-05	0.1981
x1 = 0.0001802, x2 = 2.309e-05	0.2004
x1 = 0.0001802, x2 = 3.174e-05	0.2037
x1 = 0.0001802, x2 = 4.31e-05	0.2082
x1 = 0.0001802, x2 = 5.483e-05	0.2128
x1 = 0.0001802, x2 = 6.655e-05	0.2175
x1 = 0.001798, x2 = 0.0001498	1.359
x1 = 0.001798, x2 = 0.0001618	1.363
x1 = 0.001798, x2 = 0.0001776	1.367
x1 = 0.001798, x2 = 0.0001934	1.371
x1 = 0.001798, x2 = 0.000209	1.374
x1 = 0.001798, x2 = 0.0002246	1.377
x1 = 0.001798, x2 = 0.0002401	1.38
x1 = 0.001798, x2 = 0.0002555	1.383
x1 = 0.001798, x2 = 0.0002702	1.386
x1 = 0.001798, x2 = 0.0002851	1.389
x1 = 0.001798, x2 = 0.0003037	1.393
x1 = 0.001798, x2 = 0.0003216	1.396
x1 = 0.001798, x2 = 0.0003394	1.399
x1 = 0.001798, x2 = 0.0003576	1.402
x1 = 0.001798, x2 = 0.0003752	1.405
x1 = 0.001798, x2 = 0.0003925	1.408
x1 = 0.001799, x2 = 0	1.335
x1 = 0.001799, x2 = 8.18e-06	1.333
x1 = 0.001799, x2 = 1.563e-05	1.333
x1 = 0.001799, x2 = 2.381e-05	1.333
x1 = 0.001799, x2 = 3.217e-05	1.333
x1 = 0.001799, x2 = 4.072e-05	1.334
x1 = 0.001799, x2 = 5.126e-05	1.335
x1 = 0.001799, x2 = 6.398e-05	1.338
x1 = 0.001799, x2 = 7.671e-05	1.34
x1 = 0.001799, x2 = 8.888e-05	1.343
x1 = 0.001799, x2 = 0.0001014	1.346
x1 = 0.001799, x2 = 0.0001138	1.349
x1 = 0.001799, x2 = 0.000126	1.352
x1 = 0.001799, x2 = 0.0001379	1.355

Reference: the CheMixHub ionic liquid set
